From patent US20120302573A1, “METHODS OF INHIBITING PRO MATRIX METALLOPROTEINASE ACTIVATION” (priority 2011, published 2012)

Experiments:
MMP9 = biological target: T1, MMP9 (Rattus norvegicus, UniProt P50282); experiment: Western blot of MMP9 forms in ankles of rats with SCW-induced arthritis; type: in vivo; conditions: day 26, mAb-L51/82
T1 construct: Pro and active MMP9 were abundantly present in ankles of SCW-induced vehicle-treated rats; from tissue; host or cells: tibia-tarsus joints (ankles) of female Lewis rats
T1 sequence (P50282 108-708): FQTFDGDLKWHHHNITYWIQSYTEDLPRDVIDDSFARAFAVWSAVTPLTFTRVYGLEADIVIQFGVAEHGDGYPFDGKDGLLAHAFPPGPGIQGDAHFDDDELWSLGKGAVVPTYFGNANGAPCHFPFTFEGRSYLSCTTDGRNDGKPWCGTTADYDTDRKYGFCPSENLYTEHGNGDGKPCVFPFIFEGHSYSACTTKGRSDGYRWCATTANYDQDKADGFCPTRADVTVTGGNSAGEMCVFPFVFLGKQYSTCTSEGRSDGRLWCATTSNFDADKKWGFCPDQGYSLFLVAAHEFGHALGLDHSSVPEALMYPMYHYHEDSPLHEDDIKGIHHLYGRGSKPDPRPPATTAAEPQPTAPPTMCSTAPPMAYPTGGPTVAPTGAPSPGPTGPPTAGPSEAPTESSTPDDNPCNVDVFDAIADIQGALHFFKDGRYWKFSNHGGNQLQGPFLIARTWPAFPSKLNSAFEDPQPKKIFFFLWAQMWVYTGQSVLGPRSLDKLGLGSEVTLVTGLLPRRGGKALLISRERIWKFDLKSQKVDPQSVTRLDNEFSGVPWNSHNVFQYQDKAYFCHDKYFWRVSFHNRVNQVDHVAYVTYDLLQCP
Protocol: Hind-limbs were skinned, severed just above the tibia-tarsus joint and below the metatarsals, and the tibia-tarsus joints (ankles) were weighed, snap frozen and pulverized on dry ice using a hammer and anvil. The pulverized tissue was suspended in 3 volumes (w:v) of ice-cold homogenization buffer containing 50 mM Tris pH 7.5, 150 mM NaCl, 5 mM EDTA, 1% Triton×100, 0.05% Brij 30, 10% dimethylsulfoxide and Complete EDTA-free Protease Inhibitor Cocktail (Roche Diagnostics). The suspended tissue was homogenized sequentially with a Kinematica AG Polytron and a Dounce homogenizer. Homogenates were centrifuged at 16,000×g for 10 min at 4° C. and the soluble fractions were saved. Dimethylsulfoxide was removed from a portion of each soluble fraction using PD MiniTrap™ G-25 desalting columns (GE Healthcare). Homogenates (0.25 mL), free of DMSO, were diluted with an equal volume of binding buffer (i.e., homogenization buffer without dimethylsufoxide) and adjusted to contain 50 μL of a 50% slurry of gelatin-conjugated sepharose. Following 2 hours of rotation at 4° C. the beads were washed twice in binding buffer and eluted in 100 μL 2×-reducing Laemmli buffer with heating to 95° C. for 5 minutes. […]

proMMP9 = biological target: T2, proMMP9 (Homo sapiens, UniProt P14780); experiment: Activation of proMMP9 by human fetal lung fibroblast (HFL-1) cultures (Western blot); type: cell-based; conditions: 3.3 μM, 72 hrs, mAb-L51/82
T2 construct: host or cells: HFL-1
T2 sequence (P14780 20-707 limits assumed): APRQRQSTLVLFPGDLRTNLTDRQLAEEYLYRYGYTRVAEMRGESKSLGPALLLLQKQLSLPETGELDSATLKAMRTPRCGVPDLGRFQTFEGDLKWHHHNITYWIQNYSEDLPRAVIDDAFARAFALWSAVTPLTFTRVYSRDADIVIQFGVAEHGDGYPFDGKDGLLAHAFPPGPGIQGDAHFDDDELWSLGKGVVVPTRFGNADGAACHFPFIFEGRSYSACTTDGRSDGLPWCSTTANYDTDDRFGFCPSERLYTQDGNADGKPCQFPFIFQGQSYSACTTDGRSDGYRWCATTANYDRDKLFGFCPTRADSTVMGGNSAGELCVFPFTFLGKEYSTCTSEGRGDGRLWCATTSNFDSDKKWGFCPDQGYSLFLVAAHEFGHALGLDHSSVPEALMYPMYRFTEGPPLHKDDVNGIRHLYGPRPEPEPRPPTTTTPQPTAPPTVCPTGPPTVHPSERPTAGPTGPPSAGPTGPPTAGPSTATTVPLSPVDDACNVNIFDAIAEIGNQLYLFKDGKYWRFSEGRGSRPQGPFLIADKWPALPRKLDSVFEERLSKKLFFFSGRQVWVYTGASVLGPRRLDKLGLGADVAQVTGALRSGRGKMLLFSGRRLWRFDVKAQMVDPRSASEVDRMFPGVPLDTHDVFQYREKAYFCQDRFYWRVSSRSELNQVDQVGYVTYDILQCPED
Protocol: Compound α was assessed additionally for ability to block the maturation of proMMP9 to active MMP9 in cultures of human fetal lung fibroblasts (HFL-1, American Type Culture Collection #CCL-153). Unlike rat synoviocytes, HFL-1 cells were unable to process proMMP9 to the active form without addition of neutrophil elastase. […] Rather, the function of elastase in this assay may be to inactivate tissue inhibitors of matrix metalloproteinases (TIMPs) that repress endogenous pathways of MMP9 activation (Am J Respir Crit Care Med; 1999; 159:1138-46).
HLF-1 were maintained in monolayer culture in DMEM with 10% FCS and were used between passage numbers 5-15. HLF-1 were embedded in collagen gels as described for rat SCW synoviocytes (vida supra). […] The plates were cultured an additional 72 hrs, at which time MMP9 secreted into the conditioned media was bound to gelatin-sepharose and evaluated by Western blot analysis as described for the rat synoviocyte cultures (vida supra). mAb-51/82 detected three forms of MMP9 in HFL-1 cultures. […]
A second experiment was performed to determine if the 80 kD form was mature active MMP9 and to determine the potency of Compound α as an inhibitor of MMP9 maturation in this assay. […] In the absence of Compound α, pAb-1246 readily detected MMP9 with an electrophoretic mobility of approximately 80 kD. […]

## Cc1nc(C)c(-c2csc(Nc3cc(S(N)(=O)=O)ccc3OC(C)C)n2)s1 [Compound α, 3-(2′,4′-Dimethyl-[4,5′]bithiazolyl-2-ylamino)-4-isopropoxy-benzenesulfonamide.HBr]
MMP9
  abundance of proMMP9 in ankles: did not reduce
proMMP9
  Signal Total: 91346 INT*mm^2
